The values that follow come from US8318638B2, “Plant activator” (Shiseido Company, Ltd., priority 1999, dated 2012).

For assay [1], the system named is morning glory (variety: murasaki). Briefly: Growth promotion effect on morning glory. The assay is classed as in vivo. The settings on record: 100 μm aqueous solution sprayed; measured on the 16th day; N=8; FIG. 1. As to the method: Seeds of morning glory (variety: murasaki) (9 g) were subjected to concentrated sulfuric acid treatment for 20 minutes, and then allowed to stand under water flow overnight. Subsequently, the seeds were placed on wet sea sand such that the hila of the seeds were directed upward for 24 hours, to thereby produce roots. The seeds having roots were planted in sea sand at a position 1.5-2.0 cm below the surface of the sand, and then cultured under continuous light irradiation (for about five days).
The entire plant bodies of the morning glory having leaves produced through this culture were transferred into a culture solution [KNO2 (250 mg), NH4NO2 (250 mg), KH2PO4 (250 mg), MgSO4.7H2O (250 mg), MnSO4.4H2O (1 mg), Fe-citrate n-hydrate (6 mg), H3BO3 (2 mg), CuSO4.5H2O (0.1 mg), ZeSO4.7H2O (0.2 mg), Na2MoO4.2H2O (0.2 mg), and Ca(H2PO4)22H2O (250 mg) in distilled water (1,000 mL)].
Water or a 100 μm specific ketol fatty acid (I) aqueous solution was sprayed to the cultured morning glory, which was then placed in the dark overnight (for 14 hours). Thereafter, the morning glory was grown under continuous light irradiation at 25° C. for 16 days, and on the 16th day the height of the plant was measured (N=8). The average of the heights of the plants is shown in FIG. 1 [note: “I” shown in FIG. 1 refers to “specific ketol fatty acid (I)”; the same shall apply to the below-described Figs.].

Assay [2] has as its system broad bean. Briefly: Growth promotion effect on broad bean. The following applies: 50 μm aqueous solution sprayed five consecutive days. The assay is classed as in vivo. As to the method: One month after seeding of broad bean, spraying of a 50 μm specific ketol fatty acid (I) aqueous solution was carried out for five consecutive days, and growth of the broad bean (plant width) was observed.

Assay [3] has as its system Primula melacoides. Briefly: Growth promotion effect on Primula melacoides. The following applies: 80 μM aqueous solution, five consecutive days then once a week for six weeks; six-and-a-half months after last spraying; FIG. 9. It counts as in vivo. As to the method:
One-and-a-half months after seeding of Primula melacoides, spraying of an 80 μm specific ketol fatty acid (I) aqueous solution was carried out for five consecutive days. Furthermore, four months after the start of the test, spraying of an 80 μM specific ketol fatty acid (I) aqueous solution was carried out for six weeks (once a week). Bolting was not observed at a nutrition growth stage of the Primula melacoides. Six-and-a-half months after the last spraying, the plant width and the leave size were measured.

The subject of assay [4] is Dianthus caryophyllus (feeling scarlet). The assay can be described thus: Growth promotion effect on Dianthus caryophyllus. The assay is classed as in vivo. The settings on record: 100 μm aqueous solution sprayed once, 5 mL per plant; FIG. 11. As to the method: Seedlings of Dianthus caryophyllus (feeling scarlet) were planted in early October, and then grown by means of a customary method. In mid-April of the next year, spraying of a 100 μm specific ketol fatty acid (I) aqueous solution was carried out (5 mL per plant), and then the height of the plants was measured.

Assay [5] concerns Begonia sempaflorens. The assay can be described thus: Growth promotion effect on Begonia sempaflorens. The following applies: 80 μm aqueous solution, five consecutive days then once a week for six weeks; four months after last spraying; FIG. 10. The assay is classed as in vivo. As to the method:
Two weeks after seeding of Begonia sempaflorens, spraying of an 80 μm specific ketol fatty acid (I) aqueous solution was carried out for five consecutive days. Furthermore, three months after the start of the test, spraying of an 80 μm specific ketol fatty acid (I) aqueous solution was carried out for six weeks (once a week). Four months after the last spraying, the leave size was measured.

In assay [6] the test system is strawberry seedlings. The assay can be described thus: Plant dormancy preventive test on strawberry. It counts as in vivo. As to the method: When strawberry seedlings are exposed directly to low temperature conditions in winter, the seedlings enter dormancy, and growth of the seedlings is stopped. Whether or not the present plant activator exerts the effect of preventing dormancy was evaluated.
Specific ketol fatty acid (I) aqueous solutions [concentration: 10 μM, 100 μM, and 0 μM (control)] were applied through spraying to strawberry seedlings on August 27 (at day 0), September 3, and September 8. […] In the control group, no flower bud formation was observed.
At the one hundred and eighth day, percent dormancy (percentage of dormant plants—which are plants in which growth of small leaf buds with markings is not observed 15 days after a marking was applied to the leaf buds—with respect to the entirety of the test plants) was measured. As a result, in the control group, dormancy of the entire plants was observed.

Assay [7] concerns hyphae of P. citrinopileatus. The assay can be described thus: Effect of proliferating hyphae of P. citrinopileatus Sing. The assay is classed as cell-based, Pleurotus citrinopileatus Sing. The following applies: 10 μM, 30 μM, 100 μm in potato-dextrose-agar medium; 37° C.; FIG. 15. As to the method:
A potato-dextrose-agar culture medium was sterilized by use of an autoclave. After the medium was cooled to a temperature at which the agar was not solidified, a 1 mM specific ketol fatty acid (I) aqueous solution which had been sterilized by use of a membrane filter was added to the medium, to thereby prepare four culture media; i.e., a culture medium containing 0 μM of the fatty acid (I), a culture medium containing 10 μM of the fatty acid (I), a culture medium containing 30 μM of the fatty acid (I), and a culture medium containing 100 μm of the fatty acid (I). Each of the culture media was solidified in a 10-cm plate, and then hyphae of P. citrinopileatus (one platinum loop) was inoculated on the medium. Subsequently, the hyphae were cultured at 37° C., and proliferation of the hyphae was observed (10 plates for each group). Proliferation of the hyphae was evaluated on the basis of the average of the diameters of the proliferated hyphae on the plate.

Assay [8] relates to chrysanthemum. Briefly: Growth promotion effect on chrysanthemum. The assay is classed as in vivo. The following applies: 80 μM aqueous solution, five consecutive days then once a week for six weeks; four months after the last spraying; FIG. 7. As to the method:
Two weeks after seeding of chrysanthemum, spraying of an 80 μm specific ketol fatty acid (I) aqueous solution was carried out for five consecutive days. Furthermore, three months after the start of the test, spraying of an 80 μM specific ketol fatty acid (I) aqueous solution was carried out for six weeks (once a week). Bolting was not observed at a nutrition growth stage of the chrysanthemum. Four months after the last spraying, the plant width was measured.

Each structure is given as a SMILES string.

`CC/C=C\C/C=C\CC(=O)C(O)CCCCCCCC(=O)O` (stereo not drawn) [specific ketol fatty acid (I), 9-hydroxy-10-oxo-12(Z),15(Z)-octadecadienoic acid]: the “height of the plant” value in assay [1] is listed as “becomes larger”. For the same compound, the “duration of growth promotion effect” value in assay [2] is recorded as “maintained 48 days after the start of the test”. In assay [2] (one month after seeding, FIG. 3), the “growth of the broad bean (plant width)” value is recorded as “exerts the effect of promoting growth of the broad bean”. Moreover, the leave size result in assay [3] is “increased”; in assay [5], “growth of the leaves is promoted”. For the same compound, the plant width result is given as “increased” in assay [3] and “increased significantly” in assay [8]. For the same compound, in assay [4], the “height of the plants” value is given as “growth of the Dianthus caryophyllus plant was promoted”. For the same compound, the “formation of flower buds” value in assay [6] (10 μM and 100 μM aqueous solutions sprayed three times, cultured outdoors) is “flower bud formation proceeded, and the number of flowers increased”. For the same compound, the percent dormancy result in assay [6] (10 μM and 100 μM sprayed, at the one hundred and eighth day, FIG. 14) was “dormancy of strawberry was prevented”. Moreover, the “dormancy preventive effect, low vs high concentration” value in assay [6] (10 μm vs 100 μM, FIG. 14) is recorded as “more significant in the group in which the specific ketol fatty acid (I) of low concentration (10 μm) was applied”. Moreover, the “degree of proliferation of the hyphae (average diameter on plate)” value in assay [7] is on record as “dependent on the concentration”.
